Experimental findings from BindingDB's records for doi:10.1074/jbc.M113.453423 (Université Montpellier 1, 2013) are described below.

Where a SMILES comes first, the peptide text is derived from it. [ ]: non-standard residue; d: D form.

Common to all, as to experiment: GHS Ligand Binding Assay
Experiment [1] has as its target Dimer of Growth hormone secretagogue receptor type 1 (Homo sapiens, UniProt Q92847). On the procedure: (§1) Titration experimentswere carried out with protein concentrations in the 10 nM protein concentration range and increasing ligand concentrations. […] Buffer contributions were systematically subtracted.
Experiment [2] addresses Growth hormone secretagogue receptor type 1 (Homo sapiens, UniProt Q92847). Here is the method: as §1
Experiment [3] deals with Growth hormone secretagogue receptor type 1/Isoform 1B of Growth hormone secretagogue receptor type 1 (1B) (Homo sapiens, UniProt Q92847). Here is the method:
as §1

As a reminder, the Ki is a measure of affinity in units of concentration, obtained from inhibition or displacement. A low value points to a stronger hold on the target.

Sequence of Growth hormone secretagogue receptor type 1 (Q92847 whole entry, canonical isoform): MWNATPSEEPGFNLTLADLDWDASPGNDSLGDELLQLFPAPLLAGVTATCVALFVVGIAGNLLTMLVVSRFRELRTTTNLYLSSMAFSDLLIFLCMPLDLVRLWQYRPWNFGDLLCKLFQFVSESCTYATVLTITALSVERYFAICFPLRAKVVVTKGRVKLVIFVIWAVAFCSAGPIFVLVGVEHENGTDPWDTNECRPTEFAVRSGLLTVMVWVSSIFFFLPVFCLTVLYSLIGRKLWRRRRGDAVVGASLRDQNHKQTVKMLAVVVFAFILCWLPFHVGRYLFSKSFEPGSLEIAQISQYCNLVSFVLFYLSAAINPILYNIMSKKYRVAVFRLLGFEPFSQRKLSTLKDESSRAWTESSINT
Sequence of Dimer of Growth hormone secretagogue receptor type 1 (Q92847 whole entry): as the sequence (Q92847 whole entry, canonical isoform) above
Sequence of Growth hormone secretagogue receptor type 1/Isoform 1B of Growth hormone secretagogue receptor type 1 (1B) (Q92847 whole entry, canonical isoform): as above
Sequence of Growth hormone secretagogue receptor type 1/Isoform 1B of Growth hormone secretagogue receptor type 1 (1B) (Q92847 as listed by the source): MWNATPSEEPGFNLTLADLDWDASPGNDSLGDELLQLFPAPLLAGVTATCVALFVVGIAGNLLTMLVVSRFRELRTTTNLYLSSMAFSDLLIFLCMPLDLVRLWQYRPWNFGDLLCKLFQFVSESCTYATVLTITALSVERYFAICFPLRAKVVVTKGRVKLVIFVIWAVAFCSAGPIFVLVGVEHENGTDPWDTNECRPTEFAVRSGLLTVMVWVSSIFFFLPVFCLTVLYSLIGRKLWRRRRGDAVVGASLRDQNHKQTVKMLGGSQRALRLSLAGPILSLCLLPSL

For the compound `COc1ccc(Cn2c(CCc3ccccc3)nnc2C(Cc2c[nH]c3ccccc23)NC(=O)c2ccccn2)c(OC)c1` (configuration not stated) [JMV 3002], the Ki stood at 9.9 nM in experiment [1], 9.2 nM in experiment [2] and 19.3 nM in experiment [3].

With `COc1ccc(Cn2c(CCc3c[nH]c4ccccc34)nnc2C(Cc2c[nH]c3ccccc23)NC(=O)c2ccccn2)c(OC)c1` (configuration not stated) [JMV 3011], the inhibition constant Ki in experiment [2] amounted to 8.3 nM.

Regarding `CC(C)C[C@H](NC(=O)[C@H](CC(C)C)NC(=O)[C@@H](Cc1c[nH]c2ccccc12)NC(=O)[C@H](Cc1ccccc1)NC(=O)[C@@H](Cc1c[nH]c2ccccc12)NC(=O)[C@H](CCC(N)=O)NC(=O)[C@@H](Cc1c[nH]c2ccccc12)NC(=O)[C@@H]1CCCN1C(=O)[C@H](CCCCN)NC(=O)[C@@H]1CCCN1C(=O)[C@H](N)CCCN=C(N)N)C(N)=O` [Substance P [DArg1, DTrp5,7,9,  Leu11]] (H-[dR]PKP[dW]Q[dW]F[dW]LL-NH2), the values for the inhibition constant (Ki) in experiment [1], in experiment [2] and in experiment [3] were 286 nM, 294 nM and 292 nM, respectively.
